Experimental data reported in patent US11116767B2, “3,5-disubstituted pyrazoles useful as checkpoint kinase 1 (Chk1) inhibitors, and their preparations and applications” (PHARMAENGINE, INC., priority 2016, dated 2021).
pIC50: −log10 of the molar value.

Tests used:
[1] = system: LoVo colon cancer xenograft; assay: LoVo colon xenograft model; assay type: in vivo, Balb/c nude mice
Procedure: Female Balb/c nude mice at 7-8 weeks of age (Body weights between 17-18g) were purchased from Hunan SJA Laboratory Animal Co., Ltd. HT-29 cells were cultured in DMEM culture medium containing 10% fetal bovine serum and LoVo cells were cultured in RPMI 1640 culture medium containing 10% fetal bovine serum. The cells were harvested and washed with serum free culture medium. Finally, the cells were suspended at a cell density of […] in serum free culture medium for implantation. 5 million cells per animal suspended in 0.1 ml serum free culture medium and 1.1 matrigel were injected into the right flank of the animals after a one, week acclimation period. When average tumor volume reached acceptable tumor size (100-200 mm^3) and shape, the animals were randomly assigned into treatment groups.
Lovo colon cancer cells were implanted to establish the xenograft model in Balb/c nude mice. Compound 3 and LY2606368 were dissolved in 30% SEB-β-CD (Zhiyuan Bio-technology) with 1 molar equivalents of HCl. […]

[2] = system: ChK1 phosphorylation (pChK1 S296) in HT-29 colon cancer cells; assay: Western blot analysis of ChK1 phosphorylation in HT-29 cells with SN-38; assay type: cell-based, Human; details: HT-29 cells pre-incubated with SN-38 (50 nM) 24 hours, then ChK1 inhibitor 3 hours
[3] = Human liver S9 metabolic stability; assay type: in vitro ADME; details: for Percentage Remaining %: 1 μM, 37° C.
Procedure: Compounds (1 μM) were incubated with human liver S9 (from BD Gentest) at final liver microsomal protein concentration of 0.5 mg/mL for 0, 5, 15, 30, 45 min at 37° C. The remaining compounds in the reaction were measured by LC-MS/MS. The half-life (T½) 0.693/K (K is the rate constant from a plot of ln [concentration] vs. incubation time).

MDA-MB-231 = assay: Cancer cell growth inhibition assay (CellTiter-Glo), MDA-MB-231; assay type: cell-based, Human; details: Homo sapiens, MDA-MB-231; 72 hours, cellular ATP content; read-out: MDA-MB-231 anti cell proliferation activity (grade)
Procedure: Human cancer cell lines were purchased from American Type Culture Collection (Manassas, Va.). The trypsinized cells were diluted to required volume at densities of 44,000 cells/ml. 90 ul cell slurry was dispensed per well in 96-well flat-bottomed plates with the recommended culture medium. The cells were incubated for 24 hours at 37° C. in 5% CO2 under humidified condition. The cells were then incubated with compounds at various concentrations for 72 hours in culture medium supplemented with 0.5% (v/v) FBS. Growth inhibition was assessed by assay of cellular ATP content using CellTiter-Glo reagent to each well. Luminesce was read on Envision. The inhibition rate (%)=(Max signal compound signal)/(Max signal Min signal)×100.

In the case of `COc1cc(F)cc(OCCCN)c1-c1cc(Nc2cnc(C#N)cn2)n[nH]1` [Compound 3, 5-(5-(2-(3-Aminopropoxy)-4-fluoro-6-methoxyphenyl)-1H-pyrazol-3-ylamino)pyrazine-2-carbonitrile], the T/C value ([1]; 40 mg/kg, IV, twice a week) was −77%, the tumor growth inhibition ([1]; LY2606368 15 mg/kg, Compound 3 10, 20, 40 mg/kg, IV, twice a week) was “significant tumor growth inhibition in a dose-dependent manner” and the “efficacy compared with LY2606368 at MTD dose” value ([1]; MTD dose) was “more efficacious than LY2606368”. The “inhibition of ChK1 phosphorylation (FIG. 2)” value [2] was “potently inhibited ChK1 phosphorylation”, the “Percentage Remaining %” value ([3]; 0 min) was 100.00% and the “Percentage Remaining %” value ([3]; 5 min) was 96.98%. The “Percentage Remaining %” value ([3]; 15 min) was 94.32%, the “Percentage Remaining %” value ([3]; 30 min) was 65.38% and the “Percentage Remaining %” value ([3]; 45 min) was 77.05%. For the same compound, the “metabolic stability compared with LY2606368” value ([3]; human liver S9) was “more metabolic stable than LY2606368”, the half-life at 1 μM ([3]; human liver S9, 1 μM) was 2.76 h and the pIC50 (MDA-MB-231) was 7.00 to 7.30.
